Data taken from ChEMBL document CHEMBL1138237, “Synthesis and anti-inflammatory/antioxidant activities of some new ring substituted 3-phenyl-1-(1,4-di-N-oxide quinoxalin-2-yl)-2-propen-1-one derivatives and of their 4,5-dihydro-(1H)-pyrazole analogues” (Bioorg Med Chem Lett, 2007).

Experiments:
[1] = system: Radical scavenging activity; test: Antioxidant activity assessed as DPPH radical scavenging activity at 0.05 mM after 60 mins; format: functional
[2] = system: Radical scavenging activity; test: Antioxidant activity assessed as DPPH radical scavenging activity at 0.05 mM after 20 mins; format: functional
[3] = system: Radical scavenging activity; test: Antioxidant activity assessed as DPPH radical scavenging activity at 0.1 mM after 60 mins; format: functional
[4] = Antioxidant activity assessed as hydroxyl radical scavenging activity at 0.1 mM; format: functional
[5] = molecular target: T1, Seed linoleate 13S-lipoxygenase-1 (Glycine max) (UniProt P08170); test: Inhibition of soybean lipoxygenase at 100 uM
T1 sequence (whole entry): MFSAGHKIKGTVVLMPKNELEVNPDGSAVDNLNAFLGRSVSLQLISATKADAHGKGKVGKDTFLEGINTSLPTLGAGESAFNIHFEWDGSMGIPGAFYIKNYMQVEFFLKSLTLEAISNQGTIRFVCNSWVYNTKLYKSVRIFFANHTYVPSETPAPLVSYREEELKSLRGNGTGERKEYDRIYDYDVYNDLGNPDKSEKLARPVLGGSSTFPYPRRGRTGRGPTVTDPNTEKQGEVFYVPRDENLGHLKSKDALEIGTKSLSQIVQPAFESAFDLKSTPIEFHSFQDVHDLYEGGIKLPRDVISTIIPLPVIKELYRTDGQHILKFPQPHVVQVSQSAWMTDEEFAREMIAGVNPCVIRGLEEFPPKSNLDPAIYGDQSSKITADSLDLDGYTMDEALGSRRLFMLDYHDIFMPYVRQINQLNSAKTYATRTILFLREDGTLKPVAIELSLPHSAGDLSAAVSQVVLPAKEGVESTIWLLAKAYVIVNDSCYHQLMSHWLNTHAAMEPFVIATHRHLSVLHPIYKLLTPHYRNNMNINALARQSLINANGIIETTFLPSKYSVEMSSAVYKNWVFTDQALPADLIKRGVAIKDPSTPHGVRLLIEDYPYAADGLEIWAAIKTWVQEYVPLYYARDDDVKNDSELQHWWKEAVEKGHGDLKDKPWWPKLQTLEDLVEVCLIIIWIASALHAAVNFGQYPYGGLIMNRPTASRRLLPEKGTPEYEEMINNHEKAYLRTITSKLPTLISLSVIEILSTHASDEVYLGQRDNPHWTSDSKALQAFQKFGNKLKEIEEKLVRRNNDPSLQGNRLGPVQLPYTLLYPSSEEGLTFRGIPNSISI

Rattus norvegicus = test: Antiinflammatory activity against carrageenan-induced paw edema rat model at 0.01 mmol/ml/kg; format: functional
[6] = system: Radical scavenging activity; test: Antioxidant activity assessed as DPPH radical scavenging activity at 0.1 mM after 20 mins; format: functional
[7] = Antioxidant activity assessed as superoxide radical scavenging activity at 0.1 mM by nitroblue tetrazolium method; format: functional
[8] = molecular target: T2, Seed linoleate 13S-lipoxygenase-1 (Glycine max, UniProt P08170); test: Inhibition of soybean lipoxygenase
T2 sequence (P08170 whole entry): T1 sequence (whole entry)

Row | inhibition [5] [%] | IC50 [8] [µM] | Structure (SMILES) | Activity [1] [%] | Activity [2] [%] | Activity [3] [%] | Activity [4] [%] | Inhibition (Rattus norvegicus) [%] | Activity [6] [%] | Activity [7] [%]
1 | 55.7 | – | COc1ccc2c(c1)[n+]([O-])c(C(=O)/C=C/c1ccc(O)c(OC)c1)c(C)[n+]2[O-] | 59 | 45 | 70.4 | 97.3 | 21.3 | 51 | –
2 | 67.3 | – | COc1cc(C2CC(c3c(C)[n+]([O-])c4ccccc4[n+]3[O-])=NN2)cc(OC)c1OC (stereo not given) | 46 | 42 | 38 | 93.4 | 24.3 | 31 | –
3 | – | – | O=C(O)/C=C/c1ccc(O)c(O)c1 | – | – | – | – | – | – | 45
4 | – | – | Cc1c(C)c2c(c(C)c1O)CCC(C)(C(=O)O)O2 (stereo not given) | – | – | – | 73.4 | – | – | –
5 | – | 70 | COc1cc(C2CC(c3c(C)[n+]([O-])c4ccc(F)cc4[n+]3[O-])=NN2)cc(OC)c1OC (stereo not given) | 67 | 58 | 68 | 99.3 | 23.4 | 51.6 | –
6 | – | 31 | Cc1c(C(=O)/C=C/c2ccc3c(c2)OCO3)[n+]([O-])c2ccccc2[n+]1[O-] | – | – | 3 | 96 | 4.5 | 1 | –
7 | – | 85 | COc1cc(/C=C/C(=O)c2c(C)[n+]([O-])c3ccc(F)cc3[n+]2[O-])ccc1O | 38.4 | 36.4 | 52 | 99.7 | 36.3 | 45.3 | –
8 | – | 42 | COc1cc(/C=C/C(=O)c2c(C)[n+]([O-])c3ccccc3[n+]2[O-])cc(OC)c1OC | – | – | – | 99 | 55.4 | – | 100
9 | – | – | CC(Cc1ccc(O)c(O)c1)C(C)Cc1ccc(O)c(O)c1 (stereo not given) | 72 | 68 | 82.6 | – | – | 81 | –
10 | – | – | COc1ccc2c(c1)c(CC(=O)O)c(C)n2C(=O)c1ccc(Cl)cc1 [INDOMETHACIN] | – | – | – | – | 47 | – | –
11 | – | < 1 | COc1cc(/C=C/C(=O)c2c(C)[n+]([O-])c3ccccc3[n+]2[O-])ccc1O | – | – | 56 | 100 | 56.1 | 39.4 | 12.5
